Several values for one entry are separate records, joined by “and”; a condition that tells them apart may be missing. Equal values may be shown once.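 Each compound was tested at five concentrations against cells in 96-well plates for 48 hours. The concentration for 50% growth inhibition is given as GI50. TGI is the concentration that stops growth completely.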
Tests used:
Test in all cases: inhibition of tumour cell growth, NCI panel, 48 h
ACHN renal = system: ACHN renal
CAKI-1 renal = system: CAKI-1 renal
CCRF-CEM leukemia = system: CCRF-CEM leukemia
EKVX NSCLC = system: EKVX NSCLC
HCT-116 colon = system: HCT-116 colon
HT29 colon = system: HT29 colon
K-562 leukemia = system: K-562 leukemia
OVCAR-5 ovarian = system: OVCAR-5 ovarian
SF-295 CNS = system: SF-295 CNS
SK-MEL-5 melanoma = system: SK-MEL-5 melanoma

SMILES | TGI (ACHN renal) | TGI (CAKI-1 renal) | TGI (CCRF-CEM leukemia) [µM] | TGI (EKVX NSCLC) [µM] | TGI (HCT-116 colon) [µM] | TGI (HT29 colon) | TGI (K-562 leukemia) [µM] | TGI (OVCAR-5 ovarian) [µM] | TGI (SF-295 CNS) | TGI (SK-MEL-5 melanoma) | GI50 (ACHN renal) [µM] | GI50 (CAKI-1 renal) [µM] | GI50 (CCRF-CEM leukemia) [µM] | GI50 (EKVX NSCLC) [µM] | GI50 (HCT-116 colon) [µM] | GI50 (HT29 colon) [µM] | GI50 (K-562 leukemia) [µM] | GI50 (OVCAR-5 ovarian) [µM] | GI50 (SF-295 CNS) [µM] | GI50 (SK-MEL-5 melanoma) [µM]
CN1c2ccccc2S(=O)(=O)n2c(CCc3ccccc3)nnc21 | > 100 µM | > 100 µM | > 100 | > 100 | > 100 | > 100 µM | > 100 | > 100 | > 100 µM | > 100 µM |  |  |  |  |  |  |  |  |  | 
COc1ccc(NC(=O)n2nc(/C=C\c3ccc(O)c(OC)c3)cc2/C=C\c2ccc(O)c(OC)c2)cc1 | > 100 µM | > 100 µM | 32.7 | 83.7 | 42.9 | 11 µM | 16.9 | 54.1 | 53.2 µM | 16.1 µM | 4.18 | 3.6 | 2.34 | 6.62 | 3.22 | 3.52 | 2.86 | 18.8 | 6.25 | 3.67
C/C=C(/C)c1cnc(CC(C)C)c(=O)[nH]1 | > 100 µM | > 100 µM | > 100 | > 100 | > 100 | > 100 µM | > 100 | > 100 | > 100 µM | > 100 µM |  |  |  |  |  |  |  |  |  | 
CC(=O)c1cc(-c2ccccc2N)n(-c2ccc3c(c2)OCO3)c1C | > 100 µM | 83.7 µM | > 100 | > 100 | 15.9 | > 35.6 µM | > 100 | > 100 | 45.7 µM | 1.59 µM | 0.398 | 0.406 | 0.336 | 0.392 | 0.257 | 0.292 | 0.247 | 0.268 | 0.295 | 0.196
CC1=NOC(=O)C1N=Nc1ccc(Br)c(C)c1 (stereo not drawn) | 32 µM | 30.8 µM | 34.3 | 32 | 33.9 | > 100 µM | 30.5 | 72 | 66.4 µM | 25.4 µM |  |  |  |  |  |  |  |  |  | 
COc1nc(C)cc2c(=O)n(-c3ccccc3)n(CC(O)CN3CCN(c4ccc(Cl)cc4)CC3)c(=O)c12 (stereo not drawn) | > 50 µM | > 50 µM | > 50 | > 50 | > 50 | > 50 µM | > 50 | > 50 | > 50 µM | > 50 µM | 43.3 | > 50 | > 50 | > 50 | > 50 | > 50 | > 50 | > 50 | 36.4 | 32.6
COC(=O)c1ccc2c(c1)C(=O)c1c-2n(CCCN)c(=O)c2cc(OC)c(OC)cc12 | 29.8 µM | 37.2 µM | 10.2 | 38.6 | 39.7 | 31.4 µM | 5.44 | 33.9 | 37.3 µM | 34.3 µM | 14.8 | 18.6 | 3.78 | 17.7 | 16.5 | 13.8 | 2.41 | 18.8 | 17.9 | 17.4
COc1ccccc1NC(=O)C1=C(C)NC(C)=C(C(=O)Nc2ccccc2OC)C1c1ccc(N(C)C)cc1 | > 100 µM | 89.1 µM | 52.4 | > 100 | 74.7 | > 100 µM | 54.3 | > 100 | > 100 µM | 96.7 µM |  |  |  |  |  |  |  |  |  | 
COC(=O)C1Cc2c([nH]c3ccccc23)C(c2ccccc2O)N1Cc1ccccc1 (stereo not drawn) | 39.9 µM | 34.5 µM | > 46.4 | > 31.6 | > 31.6 | > 46.4 µM | > 46.4 | > 46.4 | 42.6 µM | > 46.4 µM |  |  |  |  |  |  |  |  |  | 
Nc1cc2[nH]cnc2c(=O)[nH]1 | > 300 µM | 135 µM | > 300 | > 300 | > 300 | > 300 µM | > 300 | > 289 | > 300 µM | > 290 µM |  |  |  |  |  |  |  |  |  | 
COC(=O)C(=O)C(C(=O)C(N)=O)c1nc2ccc(C(=O)c3ccccc3)cc2[nH]c1=O (stereo not drawn) | > 100 µM | > 100 µM | > 100 | > 100 | > 100 | > 100 µM | > 100 | > 100 | > 100 µM | > 100 µM |  |  |  |  |  |  |  |  |  | 
COc1c(Sc2ccccc2)cc(Sc2ccccc2)c2cccnc12 | > 100 µM | 70.7 µM | 54.5 | > 100 | > 100 | 71.1 µM | > 100 | > 100 | 78.6 µM | 30.5 µM |  |  |  |  |  |  |  |  |  | 
Clc1ccc2c(c1)[nH]c1c2nc2sccn21 | > 100 µM | > 100 µM | > 100 | > 100 | > 100 | > 100 µM | > 100 | > 100 | > 100 µM | > 100 µM |  |  |  |  |  |  |  |  |  | 
N#Cc1c(C[n+]2ccccc2)c2ccccc2oc1=O | > 100 µM | > 100 µM | > 100 | > 100 | > 100 | > 100 µM | > 100 | > 100 | > 100 µM | > 100 µM |  |  |  |  |  |  |  |  |  | 
COc1cc2c(c(OC)c1OC)-c1ccc(O)c(=O)cc1[C@@H](NC(C)=O)CC2 | > 100 µM and 44.5 µM | > 100 µM and 37.5 µM | > 100 | > 100 | > 100 | > 100 µM and 89.7 µM | > 100 | > 100 | > 100 µM and 97.3 µM | 32.2 µM and 20.5 µM | 5.61 | 4.91 | 3.67 |  | 4.23 | 6.91 | 6.91 | 22.7 | 5.45 | 
CCOC(=O)Cc1csc(N=Nc2c(O)[nH]c3ccccc23)n1 | > 100 µM | > 100 µM | 83.3 | > 100 | > 100 | > 100 µM | > 100 | > 100 | > 100 µM | 69.9 µM |  |  |  |  |  |  |  |  |  | 
CN(C)CCCc1c2ccccc2nc2ccc(Cl)cc12 | 33.6 µM | 31.4 µM | 35.8 | 35.1 | 25.4 | 28.5 µM | 67.7 | 33.3 | 30.9 µM | 28.2 µM |  |  |  |  |  |  |  |  |  | 
COc1cc2c3c(c1OC)C1(C=CC(=O)C=C1)CC3NCC2 (stereo not drawn) | > 100 µM | > 100 µM | > 100 | > 100 | > 100 | > 100 µM | > 100 | > 100 | > 100 µM | > 100 µM |  |  |  |  |  |  |  |  |  | 
